# ChEMBL document CHEMBL1201862, “PubChem BioAssay data set” (2004)
# Values joined by “and” are separate entries in the source; they are usually repeats but may differ in a detail not shown here. Equal entries are not always repeated.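 Cultured in 96-well plates, cells were exposed to test compound for 48 hours across five concentrations. GI50 = concentration required for 50% inhibition of growth.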 Active and inactive are the calls of the source. Cut-off read from the data, not from the text of the source: active = GI50 up to about 1.1 µM and inactive = higher.
# Key:
# Test in all cases: NCI anticancer screen, dose series, 48 h
# [1] = test system: MOLT-4
# [2] = test system: A498
# [3] = test system: OVCAR-3
# [4] = test system: SR
# [5] = test system: SK-MEL-2
# [6] = test system: MCF7
# [7] = test system: NCI-H226
# [8] = test system: K562
# [9] = test system: NCI-H460
# [10] = test system: HT-29
# [11] = test system: UO-31
# [12] = test system: OVCAR-4
# [13] = test system: OVCAR-5
# [14] = test system: SF-268
# [15] = test system: SNB-19
# [16] = test system: U-251
# [17] = test system: UACC-257
# [18] = test system: M19-MEL
# [19] = test system: DLD-1
# [20] = test system: DMS-273
Structure (SMILES),GI50 [1],GI50 [2],GI50 [3],GI50 [4],GI50 [5],GI50 [6],GI50 [7],GI50 [8],GI50 [9],GI50 [10],GI50 [11],GI50 [12],GI50 [13],GI50 [14],GI50 [15],GI50 [16],GI50 [17],GI50 [18],GI50 [19],GI50 [20]
CC(NC(=O)C(NC(=O)CNC(=O)OC(C)(C)C)C(C)C)C(=O)Oc1c(Cl)c(Cl)c(Cl)c(Cl)c1Cl (stereo unspecified),34.6 µM (inactive),21.8 µM (inactive),13.2 µM (inactive),71 µM (inactive),14.3 µM (inactive),25.5 µM (inactive),19.8 µM (inactive),50.7 µM (inactive),18.6 µM (inactive),26.4 µM (inactive),16 µM (inactive),18.8 µM (inactive),14.7 µM (inactive),23 µM (inactive),30.8 µM (inactive),21.1 µM (inactive),15.9 µM (inactive),–,–,–
CC1(CO)C(O)CCC2(C)C1C(O)CC1CC3CC12CCC3(O)CO (stereo unspecified),> 96.6 µM (inactive),> 225 µM (inactive),> 225 µM (inactive),–,> 225 µM (inactive),> 217 µM (inactive),116 µM (inactive),> 225 µM (inactive),77.1 µM (inactive),> 225 µM (inactive),> 217 µM (inactive),> 225 µM (inactive),> 225 µM (inactive),> 191 µM (inactive),> 225 µM (inactive),> 225 µM (inactive),> 225 µM (inactive),> 153 µM (inactive),> 225 µM (inactive),104 µM (inactive)
C=CCN1C(=O)/C(=C/c2ccccc2)N=C1SC1OC(COC(=O)c2ccccc2)C(OC(=O)c2ccccc2)C1OC(=O)c1ccccc1 (stereo unspecified),> 100 µM (inactive),49.8 µM (inactive),> 100 µM (inactive),64.3 µM (inactive),> 100 µM (inactive),15.1 µM (inactive),> 100 µM (inactive),46.2 µM (inactive),> 100 µM (inactive),–,–,> 100 µM (inactive),44.3 µM (inactive),–,–,> 100 µM (inactive),25.7 µM (inactive),–,–,–
Cc1cc(OCC(O)CO)ccc1Cl (stereo unspecified),> 100 µM (inactive),> 100 µM (inactive),> 100 µM (inactive),60.1 µM (inactive),> 100 µM (inactive),–,> 100 µM (inactive),> 100 µM (inactive),> 100 µM (inactive),> 100 µM (inactive),> 100 µM (inactive),> 100 µM (inactive),> 100 µM (inactive),> 100 µM (inactive),> 100 µM (inactive),> 100 µM (inactive),> 100 µM (inactive),> 100 µM (inactive),> 100 µM (inactive),> 100 µM (inactive)
CC1=CC2=C(C=O)C(=O)[C@](C)(O)[C@@H](O)C2=CO1,15.6 µM (inactive),24.3 µM (inactive),1.56 µM (inactive),–,24.2 µM (inactive),39.4 µM (inactive),25.8 µM (inactive),27.9 µM (inactive),29.9 µM (inactive),37.7 µM (inactive),16.8 µM (inactive),39.1 µM (inactive),> 50.8 µM (inactive),24.9 µM (inactive),0.982 µM (active),25.2 µM (inactive),33.2 µM (inactive),22.4 µM (inactive),28.9 µM (inactive),28.9 µM (inactive)
O=[N+]([O-])c1ccc(CNC2=NNS(=O)(=O)c3ccccc32)cc1,22.3 µM (inactive),32.1 µM (inactive),> 100 µM (inactive),31.6 µM (inactive),> 100 µM (inactive),–,> 100 µM (inactive),27 µM (inactive),> 100 µM (inactive),> 100 µM (inactive),> 100 µM (inactive),> 100 µM (inactive),> 100 µM (inactive),> 100 µM (inactive),> 100 µM (inactive),72.1 µM (inactive),> 100 µM (inactive),> 100 µM (inactive),> 100 µM (inactive),> 100 µM (inactive)
CC/C(CC(=O)CCC(=O)Nc1ccc(C)c(C)c1)=N\NC(=O)c1cc2ccccc2cc1O,11.4 µM (inactive),–,18.6 µM (inactive),18 µM (inactive),31 µM (inactive),–,13.4 µM (inactive),21.8 µM (inactive),23.6 µM (inactive),38.5 µM (inactive),26 µM (inactive),18.4 µM (inactive),31 µM (inactive),22.1 µM (inactive),39.1 µM (inactive),28.8 µM (inactive),45.2 µM (inactive),28.8 µM (inactive),13.4 µM (inactive),–
COC(=N)C(C)C,> 100 µM (inactive),–,> 100 µM (inactive),> 100 µM (inactive),–,–,> 100 µM (inactive),> 100 µM (inactive),> 100 µM (inactive),> 100 µM (inactive),> 100 µM (inactive),> 100 µM (inactive),> 100 µM (inactive),> 100 µM (inactive),> 100 µM (inactive),> 100 µM (inactive),> 100 µM (inactive),> 100 µM (inactive),> 100 µM (inactive),> 100 µM (inactive)
NC(CSC(=O)c1ccccc1)C(=O)O (stereo unspecified),> 100 µM (inactive),> 100 µM (inactive),> 100 µM (inactive),> 100 µM (inactive),> 100 µM (inactive),> 100 µM (inactive),> 100 µM (inactive),–,> 100 µM (inactive),> 100 µM (inactive),> 100 µM (inactive),> 100 µM (inactive),> 100 µM (inactive),> 100 µM (inactive),> 100 µM (inactive),> 100 µM (inactive),> 100 µM (inactive),–,–,–
CC#CC#C/C=C1\C=CC2(OC=CC2OC(C)=O)O1 (stereo unspecified),–,47.6 µM (inactive) and 80.9 µM (inactive),32.2 µM (inactive),17.6 µM (inactive) and 15.3 µM (inactive),–,14.4 µM (inactive),–,25.6 µM (inactive) and 19 µM (inactive),32.3 µM (inactive) and 21.7 µM (inactive),16.1 µM (inactive) and 22.4 µM (inactive),15.5 µM (inactive) and 18.4 µM (inactive),–,–,23.7 µM (inactive) and 19.4 µM (inactive),> 100 µM (inactive) and > 82.2 µM (inactive),19.5 µM (inactive) and 18.5 µM (inactive),–,–,16.5 µM (inactive),20.1 µM (inactive)
O=C1C=C2SC3C[C@@]24CC1(O)[N+]1=c2c4c(c(O)c4c2=C(C=N4)CC1)N3,0.268 µM (active),1.88 µM (inactive),0.206 µM (active),–,1.44 µM (inactive),0.278 µM (active),1.78 µM (inactive),0.64 µM (active),2.07 µM (inactive),0.299 µM (active),1.89 µM (inactive),1.26 µM (inactive),2.33 µM (inactive),1.01 µM (active),1.74 µM (inactive),1.75 µM (inactive),1.16 µM (inactive),0.285 µM (active),1.11 µM (active),1.42 µM (inactive)
COc1ccc(-c2cc(O)c3cc(C)cnc3n2)cc1,4.43 µM (inactive),7.29 µM (inactive),–,–,3.5 µM (inactive),2.72 µM (inactive),13 µM (inactive),2.29 µM (inactive),–,2.21 µM (inactive),7.85 µM (inactive),33.9 µM (inactive),93.8 µM (inactive),6.81 µM (inactive),> 100 µM (inactive),–,5.64 µM (inactive),–,–,–
